Values joined by “and” are separate entries in the source; they are usually repeats but may differ in a detail not shown here. Identical values can stand only once. Counter-ions that a name gives are not always drawn. Like-named read-outs stand apart in the source and are kept apart here.
Key:
[1] = tested on: adult rat DRG explants; type: cell-based
[2] = DRG cytotoxicity assessment using LDH assay; type: cell-based, rat; conditions: female, rat, rat dorsal root ganglion (DRG) explants, 100 nM, female rat DRG explant, single well
Experimental: (§1) 500 nM Imy and 10 nM Vcr were excluded from female rat DRG experiments while 500 nM Vcr and 1 mM Pyr were excluded from male rat DRG experiments due to insufficient DRG replicates with axon outgrowth. DRG media was removed from wells and transferred into a 96-well plate for pre-treat LDH cytotoxicity assay (see Methods below). 300 μL of media treatment solutions or solvent control solutions were added to wells. DRGs were incubated with treatment solutions for three days, and brightfield images at 4X magnification were taken using BioTek Cytation1 Plate Imager (Agilent) before treatment (day -1) and on days 1, 2 and 3 after treatment. DRGs from adult male and female rats were tested to determine if sex can affect axonal dieback. In total, 12 to 15 DRG replicates per group by sex harvested from n = 3 male and n = 3 female rats were tested.
(§2) Lactate dehydrogenase (LDH) is a cytosolic enzyme present in all cells. Dissociated rat DRG neurons release LDH during tunicamycin-induced apoptosis. […] An ideal axonal dieback compound should cause axonal degeneration without neurotoxicity. was assessed on day 3 post-treat and normalized to pre-treat levels to account for variability in DRG size and growth and calculated as a percentage of cytotoxicity to lysed DRGs (positive control). 50 μL of pre-treatment and post-treatment media were aliquoted in duplicates into a 96-well plate. LDH activity in the media post-treat was assessed using the CyQUANT^TM LDH Cytotoxicity Assay Kit (Thermo Fisher Scientific, C20301) according to the manufacturer’s instructions. Briefly, 50 μL of Substrate Mix was added to each well and then incubated at room temperature for 30 minutes protected from light. 50 μL of Stop solution was added to each well and the absorbance at 490 nm and 680 nm was measured using a microplate reader (Agilent). LDH activity of each DRG was calculated as the difference between absorbance at 490 nm after subtracting the background absorbance at 680 nm. As a positive control, 13 female rat DRGs and 15 male rat DRGs were treated for three days with Lysis buffer solution, provided in the kit, diluted 1:5.45 in DRG media. The percentage of cytotoxicity was calculated following Eq 2. Pre-treat levels of LDH activity were subtracted from post-treat LDH activity in each DRG to remove baseline LDH activity then percentage of cytotoxicity compared to positive control lysed DRG LDH activity was calculated. Sex is a biological factor that can influence neurotoxicity. Thus, percentage of cytotoxicity of total 11 to 14 DRG replicates per group by sex from n = 3 male and n = 3 female rats were tested.
(§3) Cytotoxicity(%)=(PosttreatLDHactivity)−(PretreatLDHactivity)/(MaximumLDHactivityfromlysedDRGs)−(PretreatLDHactivity)×100% (2)

[3] = tested on: rat DRG explants; experiment: DRG cytotoxicity assessment using LDH assay; type: cell-based; conditions: for Cytotoxicity (%): female rat DRG explant, single well
Experimental: as §1, §2, §3

[4] = tested on: Human NP cells; experiment: NP cell metabolic activity (AlamarBlue reduction); type: cell-based;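 for AB reduction per cell (%): percent AlamarBlue reduction per manufacturer divided by estimated total cells per well from LIVE/DEAD counts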
Experimental: Nucleus pulposus (NP) cells are native matrix-producing cells at the core of intervertebral discs. To repurpose axonal dieback compounds to denervate aberrant nerve fibers in discs related to chronic LBP, the cytocompatibility of these compounds with NP cells must be evaluated. Human NP cells (Sciencell, 4800) from donor 1 (Lot #5954) and donor 2 (Lot# 21579) were cultured according to previously established protocol in our lab adapted from manufacturer’s instructions. Briefly, passage three cells from both donors were expanded in Poly-L-lysine (PLL) (Sciencell, 413) coated T75 flasks. Cells were then lifted and reseeded at 5,000 cells/cm^2 onto two PLL-coated 48-well plates (Greiner Bio-One, 677180) and allowed to attach overnight before treating with Pyr or Vcr. One plate was used for LIVE/DEAD staining and the other plate was used for AlamarBlue assay as described below. Complete NP cell media (Sciencell, 4801) containing basal media supplemented with 1% penicillin-streptomycin, 1% growth supplement and 2% FBS were used for maintaining cells in culture. To mimic the hypoxic disc environment, NP cells were cultured in a hypoxia chamber (Stem Cell Technologies, 27310) with 5% CO2, 3.5% O2, 91.5% N2 (Airgas) during the entire culture and treatment incubation period.
Pyr stock solution was diluted in complete NP media to achieve final concentrations of 500 μM, 1 mM and 2 mM Pyr. 16.9 μg/mL and 169 μg/mL Vcr stock solutions were prepared in 1X PBS then diluted in complete NP media to achieve final concentrations of 10, 25, 50, 100 nM and 200, 500 nM, respectively. Cells were incubated with 250 μL of final treatment solutions in duplicate wells per donor for three days. Cells in negative control group were incubated with 250 μL of complete NP media with 0.55% v/v 1X PBS as solvent control. On day 3 post-treatment, brightfield images at 4X magnification were taken using a BioTek Cytation1 Plate Imager (Agilent) to verify cell proliferation and observe cell morphology. Three experimental replicates were performed for each cell donor.
On day 3 of incubation with drugs, 25 μL (10% v/v of media volume) of AlamarBlue HS cell viability reagent (Thermo Fisher Scientific, A50100) were added into each well. Cells were incubated with the AlamarBlue reagent for 2 hours at 37°C under hypoxia then 60 μL aliquots of cell media were removed in duplicates into a 96-well plate. The absorbance at 570 and 600 nm were read using a microplate reader (Agilent) and calculations for AlamarBlue reduction were calculated according to the manufacturer’s protocol. To account for different cell confluency between donors and groups, AlamarBlue reduction was normalized to estimated total number of cells per well obtained from LIVE/DEAD staining. Cellular metabolic activity in treated groups was reported as a ratio of normalized AlamarBlue reduction to PBS control group.

[5] = tested on: dissociated DRG neurons from embryonic mice; set-up: method as in PMID 31484833; conditions: 40 nM; cited from earlier work
[6] = tested on: adult rat DRG neurons; set-up: method as in PMID 32388569; conditions: below 1000 nM; cited from earlier work
[7] = systemic administration; cited from earlier work

For `CC[C@]1(O)C[C@H]2CN(CCc3c([nH]c4ccccc34)[C@@](C(=O)OC)(c3cc4c(cc3OC)N(C=O)[C@H]3[C@@](O)(C(=O)OC)[C@H](OC(C)=O)[C@]5(CC)C=CCN6CC[C@]43[C@@H]65)C2)C1` [Vcr, vincristine sulfate], the “Axon length ratio compared to PBS control” value [1] was “significantly lower axon length ratio than PBS control”, the “Day on which Caps axon length ratio threshold (0.45) was met” value [1] was at most 1 days and the “Original axon length left behind” value [1] was “less than 8.1%”. The “Day on which Caps axon length ratio threshold (0.45) was met” value ([1]; 100 nM) was at most 2 days, the cytotoxicity at 3 days, 0.1 µM [2] was 15.5% and the “Cytotoxicity (%)” value ([3]; 1 nM, 0.001 µM) was 6.189% and 9.7112% and 4.38%. The “Percentage of DRG cytotoxicity, Mean (SD)” value ([3]; 10 nM, day 3, male rat DRGs only, relative to lysed DRGs) was 7.02 (4.36) %, the “Percentage of cytotoxicity less than lysed DRGs” value ([3]; 100 nM, day 3) was 89.8% and the “Cytotoxicity (%)” value ([3]; 100 nM, 0.1 µM) was 11.901%. For the same compound, the “Cytotoxicity (%)” value ([3]; 500 nM, 0.5 µM) was 7.521% and 12.2818% and 15.3285%, the “Overall cytotoxicity lower compared to lysed DRGs” value ([3]; all concentrations tested, day 3) was “at least 88%” and the “AB reduction per cell (%)” value ([4]; 10 nM, donor 1, day 3, single wells (Exp, Rep)) was 0.002283% and 0.00154% and 0.001747% and 0.002442% and 0.00231% and 0.002706%. The “AB reduction per cell (%)” value ([4]; 10 nM, donor 2, day 3, single wells (Exp, Rep)) was 0.001215% and 0.001339% and 0.005412% and 0.01334% and 0.005031% and 0.005908%, the “AB reduction per cell (%)” value ([4]; 25 nM, donor 1, day 3, single wells (Exp, Rep)) was 0.001389% and 0.003739% and 0.002704% and 0.002205% and 0.001365% and 0.001406% and the “AB reduction per cell (%)” value ([4]; 25 nM, donor 2, day 3, single wells (Exp, Rep)) was 0.003051% and 0.007629% and 0.005557% and 0.004909% and 0.001181% and 0.0009857%. For the same compound, the “AB reduction per cell (%)” value ([4]; 50 nM, donor 1, day 3, single wells (Exp, Rep)) was 0.001753% and 0.001156% and 0.00138% and 0.00139% and 0.003609% and 0.003175%, the “AB reduction per cell (%)” value ([4]; 50 nM, donor 2, day 3, single wells (Exp, Rep)) was 0.0005415% and 0.0008201% and 0.002435% and 0.002975% and 0.005792% and 0.00531% and the “AB reduction per cell (%)” value ([4]; 100 nM, donor 1, day 3, single wells (Exp, Rep)) was 0.001416% and 0.0009649% and 0.001537% and 0.002073% and 0.00337% and 0.003265%. The “AB reduction per cell (%)” value ([4]; 100 nM, donor 2, day 3, single wells (Exp, Rep)) was 0.0006846% and 0.0007833% and 0.00204% and 0.002057% and 0.009145% and 0.008838%, the “AB reduction per cell (%)” value ([4]; 200 nM, donor 1, day 3, single wells (Exp, Rep)) was 0.001363% and 0.0008921% and 0.002395% and 0.003983% and 0.00365% and 0.004535% and the “AB reduction per cell (%)” value ([4]; 200 nM, donor 2, day 3, single wells (Exp, Rep)) was 0.0005853% and 0.0004556% and 0.002302% and 0.00249% and 0.005313% and 0.004842%. For the same compound, the “AB reduction per cell (%)” value ([4]; 500 nM, donor 1, day 3, single wells (Exp, Rep)) was 0.001679% and 0.00128% and 0.002381% and 0.004274% and 0.005712% and 0.005618%, the “AB reduction per cell (%)” value ([4]; 500 nM, donor 2, day 3, single wells (Exp, Rep)) was 0.0008561% and 0.0008471% and 0.004331% and 0.0268% and 0.00643% and 0.009026% and the “Cellular metabolic activity compared to PBS control” value ([4]; 10 to 500 nM, donor 1 and 2, day 3) was “No significant differences were detected”. For the same compound, the “Time to axon degeneration” value [5] was at most 12 h, the “Time to complete axon fragmentation” value [5] was at most 36 h and the Cytotoxicity [6] was “does not induce cytotoxicity”. For the same compound, the “Chemotherapy patients developing peripheral neuropathy” value [7] was 96%.

— article PMC11065314, “Identification of compounds that cause axonal dieback without cytotoxicity in dorsal root ganglia explants and intervertebral disc cells with potential to treat pain via denervation” (PLOS ONE, 2024)
